Measured values from paper PMC7059037, “Development of 1,2,4-Triazole-5-Thione Derivatives as Potential Inhibitors of Enoyl Acyl Carrier Protein Reductase (InhA) in Tuberculosis” (Iranian Journal of Pharmaceutical Research : IJPR, 2019).
In brackets after ≈: the same amount, converted by molar mass. Where two headings read alike, the source gives them in different places.

Experiments:
Mtb H37Rv strain = experiment: Mtb H37Rv assay, resazurin microtiter-based assay (REMA); type: cell-based, Mycobacterium tuberculosis; details: REMA plate method, 90% inhibition with respect to growth control
[1] = molecular target: Mtb InhA (enoyl acyl carrier protein reductase) (Mycobacterium tuberculosis, UniProt P9WGR1); experiment: Mtb InhA enzyme inhibition assay (fluorescence based); type: biochemical
Protocol: Mtb InhA enzyme inhibition assay (Fluorescence based assay)
The compounds were dissolved in 100% dimethyl sulfoxide (DMSO). […] The 50μL enzyme reaction contained PIPES- 30 mM, pH 7.5, NaCl - 50 mM, 0.005% Brij-35, DTT - 2mM, and EDTA- 0.1mM. The enzyme reaction was started by the addition of […] of dodecyl CoA synthesized in-house and the depletion of NADH was followed by measuring the fluorescence of NADH kinetically in the reaction for 30min at excitation at 340nm and emission at 420nm using Tecan Saffire II reader. The concentration at which 50% inhibition in enzyme activity was observed was reported as the IC50.

[2] = read-out: InhA IC50, InhA 1.25 nM, 0.050 mM NADH, NADH fluorescence

Sequence of Mtb InhA (enoyl acyl carrier protein reductase) (P9WGR1 whole entry, looked up): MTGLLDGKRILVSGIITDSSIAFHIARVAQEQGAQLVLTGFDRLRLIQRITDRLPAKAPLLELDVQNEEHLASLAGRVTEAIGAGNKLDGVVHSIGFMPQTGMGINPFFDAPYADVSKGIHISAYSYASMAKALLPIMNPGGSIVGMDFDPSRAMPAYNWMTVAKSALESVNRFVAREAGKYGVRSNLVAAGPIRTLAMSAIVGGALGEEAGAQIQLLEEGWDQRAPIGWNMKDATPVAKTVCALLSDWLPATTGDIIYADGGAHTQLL

Row | Compound | MIC (Mtb H37Rv strain; Mycobacterium tuberculosis) [µM] | IC50 [1, 2] [µM] | melting point [°C] | MIC (Mtb H37Rv strain) [µM] | IC50 [1] [µM]
1 | Nn1c(-c2ccncc2)nn(CC(=O)Nc2ccccc2)c1=S [Compound 6a, 2-(4-Amino-3-pyridin-4-yl-5-thioxo-4,5-dihydro-[1,2,4]triazol-1-yl)-N-phenyl acetamide] | 12.5 (≈ 4.08 µg/mL) | 0.68 | 242 to 244 |  | 
2 | Cc1ccc(NC(=O)Cn2nc(-c3ccncc3)n(N)c2=S)cc1 [Compound 6b, 2-(4-amino-3-(pyridin-4-yl)-5-thioxo-4,5-dihydro-1H-1,2,4-triazol-1-yl)-N-(p-tolyl)acetamide] | 0.19 (≈ 0.0647 µg/mL) |  | 237 to 238 | 0.19 (≈ 0.0647 µg/mL) | 0.09
3 | Nn1c(-c2ccncc2)nn(CC(=O)Nc2ccc(Br)cc2F)c1=S [Compound 6c, 2-(4-amino-3-(pyridin-4-yl)-5-thioxo-4,5-dihydro-1H-1,2,4-triazol-1-yl)-N-(4-bromo-2-fluorophenyl)acetamide] | 3.12 (≈ 1.32 µg/mL) |  | 276 to 278 |  | 6.15
4 | COc1ccc(NC(=O)Cn2nc(-c3ccncc3)n(N)c2=S)cc1 [Compound 6d, 2-(4-Amino-3-(pyridin-4-yl)-5-thioxo-4,5-dihydro-1H[1,2,4]triazol-1-yl)-N-(4-methoxyphenyl) acetamide] | 25 (≈ 8.91 µg/mL) | 10.8 | 256 to 258 |  | 
5 | Nn1c(-c2ccncc2)nn(CC(=O)Nc2cccc(C(F)(F)F)c2)c1=S [Compound 6e, 2-(4-Amino-3-(pyridin-4-yl)-5-thioxo-4,5-dihydro-1H[1,2,4]triazol-1-yl)-N-(3-trifluoromethylphenyl) acetamide] | 12.5 (≈ 4.93 µg/mL) | 5.95 | 242 to 244 |  | 
6 | Nn1c(-c2ccncc2)nn(CC(=O)Nc2ccc(Cl)cc2)c1=S [Compound 6f, 2-(4-Amino-(3-pyridin-4-yl)-5-thioxo-4,5-dihydro-1H[1,2,4]triazol-1-yl)-N-(4-chlorophenyl) acetamide] | 12.5 (≈ 4.51 µg/mL) | 1.2 | 218 to 220 |  | 
7 | Cc1ccc(NC(=O)Cn2nc(-c3ccncc3)n(N)c2=S)cc1C [Compound 6g, 2-(4-Amino-(3-pyridin-4-yl)-5-thioxo-4,5-dihydro-1H[1,2,4]triazol-1-yl)-N-(3,4-dimethylphenyl) acetamide] | 0.39 (≈ 0.138 µg/mL) | 0.19 | 242 to 244 |  | 
8 | Cc1ccc(NC(=O)Cn2nc(-c3ccncc3)n(N)c2=S)cc1Cl [Compound 6h, 2-(4-Amino-(3-pyridin-4-yl)-5-thioxo-4,5-dihydro-1H[1,2,4]triazol-1-yl)-N-(3-chloro-4-methylphenyl) acetamide] | 6.25 (≈ 2.34 µg/mL) | 0.34 | 214 to 216 |  | 
9 | Cc1cccc(NC(=O)Cn2nc(-c3ccncc3)n(N)c2=S)c1 [Compound 6i, 2-(4-Amino-(3-pyridin-4-yl)-5-thioxo-4,5-dihydro-1H[1,2,4]triazol-1-yl)-N-(3-methylphenyl)acetamide] | 0.39 (≈ 0.133 µg/mL) |  | 225 to 227 |  | 0.12
10 | Nn1c(-c2ccncc2)nn(CC(=O)Nc2cccc(Cl)c2)c1=S [Compound 6j, 2-(4-Amino-(3-pyridin-4-yl)-5-thioxo-4,5-dihydro-1H[1,2,4]triazol-1-yl)-N-(3-chlorophenyl) acetamide] | 6.25 (≈ 2.26 µg/mL) | 3.1 | 220 to 222 |  | 
11 | Nn1c(-c2ccncc2)nn(CC(=O)Nc2cc(C(F)(F)F)ccc2Cl)c1=S [Compound 6k, 2-(4-Amino-(3-pyridin-4-yl)-5-thioxo-4,5-dihydro-1H[1,2,4]triazol-1-yl)-N-(2-chloro-5-trifluoromethylphenyl) acetamide] |  |  | 184 to 186 |  | 
12 | COc1cccc(NC(=O)Cn2nc(-c3ccncc3)n(N)c2=S)c1 [Compound 6l, 2-(4-Amino-(3-pyridin-4-yl)-5-thioxo-4,5-dihydro-1H[1,2,4]triazol-1-yl)-N-(3-methoxyphenyl) acetamide] |  |  | 222 to 224 |  | 
13 | Nn1c(-c2ccncc2)nn(CC(=O)Nc2ccc(F)cc2)c1=S [Compound 6m, 2-(4-Amino-(3-pyridin-4-yl)-5-thioxo-4,5-dihydro-1H[1,2,4]triazol-1-yl)-N-(4-fluorophenyl) acetamide] |  |  | 227 to 229 |  | 
14 | Nn1c(-c2ccncc2)nn(CC(=O)Nc2ccc(C(F)(F)F)cc2)c1=S [Compound 6n, 2-(4-Amino-(3-pyridin-4-yl)-5-thioxo-4,5-dihydro-1H[1,2,4]triazol-1-yl)-N-(4-trifluoromethylphenyl) acetamide] |  |  | 227 to 229 |  | 
15 | Nn1c(-c2ccncc2)nn(CC(=O)Nc2ccccn2)c1=S [Compound 6o, 2-(4-Amino-(3-pyridin-4-yl)-5-thioxo-4,5-dihydro-1H[1,2,4]triazol-1-yl)-N-pyridin-2-yl acetamide] | 100 (≈ 32.7 µg/mL) | 76 | 212 to 214 |  | 
16 | Cc1cccc(NC(=O)Cn2nc(-c3ccncc3)n(N)c2=S)n1 [Compound 6p, 2-(4-Amino-(3-pyridin-4-yl)-5-thioxo-4,5-dihydro-1H[1,2,4]triazol-1-yl)-N-(6-methylpyridin-2-yl) acetamide] | 100 (≈ 34.1 µg/mL) | 86 | 230 to 232 |  | 
17 | Cc1ccnc(NC(=O)Cn2nc(-c3ccncc3)n(N)c2=S)c1 [Compound 6q, 2-(4-Amino-(3-pyridin-4-yl)-5-thioxo-4,5-dihydro-1H[1,2,4]triazol-1-yl)-N-(4-methylpyridin-2-yl) acetamide] |  |  | 217 to 219 |  | 
18 | Nn1c(-c2ccncc2)nn(CC(=O)Nc2ncccn2)c1=S [Compound 6r, 2-(4-Amino-(3-pyridin-4-yl)-5-thioxo-4,5-dihydro-1H[1,2,4]triazol-1-yl)-N-pyrimidin-2-yl acetamide] |  |  | 205 to 207 |  | 
19 | Cc1cc(NC(=O)Cn2nc(-c3ccncc3)n(N)c2=S)no1 [Compound 6s, 2-(4-Amino-(3-pyridin-4-yl)-5-thioxo-4,5-dihydro-1H[1,2,4]triazol-1-yl)-N-(5-methylisoxazol-3-yl) acetamide] |  |  | 242 to 244 |  | 
20 | Cc1cccc2sc(NC(=O)Cn3nc(-c4ccncc4)n(N)c3=S)nc12 [Compound 6t, 2-(4-Amino-(3-pyridin-4-yl)-5-thioxo-4,5-dihydro-1H[1,2,4]triazol-1-yl)-N-(4-methylbenzothiazol-3-yl) acetamide] |  |  | 243 to 245 |  | 
21 | Nn1c(-c2ccncc2)nn(CC(=O)Nc2nccs2)c1=S [Compound 6u, 2-(4-Amino-(3-pyridin-4-yl)-5-thioxo-4,5-dihydro-1H[1,2,4]triazol-1-yl)-N-thiazol-2-yl acetamide] |  |  | 253 to 255 |  | 
22 | Cc1cnc(NC(=O)Cn2nc(-c3ccncc3)n(N)c2=S)s1 [Compound 6v, 2-(4-Amino-(3-pyridin-4-yl)-5-thioxo-4,5-dihydro-1H[1,2,4]triazol-1-yl)-N-(5-methylthiazol-2-yl) acetamide] |  |  | 250 to 252 |  | 
23 | O=C(Cn1nc(-c2ccncc2)oc1=S)Nc1ccccn1 [Compound 7a, 2-(5-pyridin-4-yl-2-thioxo-[1,3,4]oxadiazol-3-yl)-N-pyridin-2-yl acetamide] |  |  | 216 to 218 |  | 
24 | Cc1cc(NC(=O)Cn2nc(-c3ccncc3)oc2=S)no1 [Compound 7b, N-(5-methylisoxazol-3-yl)-2-(5-(pyridin-4-yl)-2-thioxo-1,3,4-oxadiazol-3(2H)-yl)acetamide] | 50 (≈ 15.9 µg/mL) |  | 232 to 234 |  | 24
25 | O=C(Cn1nc(-c2ccncc2)oc1=S)Nc1nccs1 [Compound 7c, 2-(5-pyridin-4-yl-2-thioxo-[1,3,4]oxadiazol-3-yl)-N-thiazol-2-yl acetamide] |  |  | 244 to 246 |  | 
26 | Cc1cnc(NC(=O)Cn2nc(-c3ccncc3)oc2=S)s1 [Compound 7d, N-(5-methylthiazol-2-yl)-2-(5-(pyridin-4-yl)-2-thioxo-1,3,4-oxadiazol-3(2H)-yl)acetamide] | 100 (≈ 33.3 µg/mL) |  | 236 to 238 |  | 67
27 | O=C(Cn1nc(-c2ccncc2)oc1=S)Nc1ncc([N+](=O)[O-])s1 [Compound 7e, N-(5-nitrothiazol-2-yl)-2-(5-(pyridin-4-yl)-2-thioxo-1,3,4-oxadiazol-3(2H)-yl)acetamide] | 100 (≈ 36.4 µg/mL) |  | 254 to 256 |  | 82
28 | O=C(Cn1nc(-c2ccncc2)oc1=S)Nc1nc2ccccc2s1 [Compound 7f, 2-(5-pyridin-4-yl-2-thioxo-[1,3,4]oxadiazol-3-yl)-N-benzothiazol-2-yl acetamide] |  |  | 206 to 208 |  | 
29 | CCOc1ccc2nc(NC(=O)Cn3nc(-c4ccncc4)oc3=S)sc2c1 [Compound 7g, N-(6-ethoxybenzo[d]thiazol-2-yl)-2-(5-(pyridin-4-yl)-2-thioxo-1,3,4-oxadiazol-3(2H)-yl)acetamide] | > 100 |  | 252 to 254 |  | > 100
30 | NNC(=O)c1ccncc1 [INH, isoniazid, reference compound] | 0.05 (≈ 0.00686 µg/mL) |  |  |  | 
